From PubChem BioAssay AID330 (DTP/NCI, 2004)
Several values for one entry are separate records, joined by “and”; a condition that tells them apart may be missing. Equal entries are not always repeated. Toxic doses and inconclusive results are not listed. The calls were made as follows: active = survival T/C of 150% or more; inactive = T/C below 125% in these data.

Tested on: P388 leukemia ip, CD2F1 mice, survival T/C
Assay: NCI In Vivo Anticancer Drug Screen. Data for tumor model P388 Leukemia (intraperitoneal) in CD2F1 (CDF1) mice
Conditions: endpoint: median survival time, higher = longer survival
In short: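 Mice carrying the transplanted tumor received test compound or vehicle. Survival was recorded in each group, and the value is the treated-group measurement divided by that of the vehicle-treated control group.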

[1] = dose: 50.0 mg/kg/injection, schedule: Q01DX005 (ip), vehicle: saline with Tween-80
[2] = dose: 100.0 mg/kg/injection, schedule: Q01DX005 (ip), vehicle: saline with Tween-80
[3] = dose: 200.0 mg/kg/injection, schedule: Q01DX005 (ip), vehicle: saline with Tween-80
[4] = dose: 50.0 mg/kg/injection, schedule: Q01DX005 (ip), vehicle: Klucel (hydroxypropylcellulose) (HPC)
[5] = dose: 100.0 mg/kg/injection, schedule: Q01DX005 (ip), vehicle: Klucel (hydroxypropylcellulose) (HPC)
[6] = dose: 200.0 mg/kg/injection, schedule: Q01DX005 (ip), vehicle: Klucel (hydroxypropylcellulose) (HPC)
[7] = dose: 100.0 mg/kg/injection, schedule: Q01DX001 (ip), vehicle: Klucel (hydroxypropylcellulose) (HPC)
[8] = dose: 200.0 mg/kg/injection, schedule: Q01DX001 (ip), vehicle: Klucel (hydroxypropylcellulose) (HPC)
[9] = dose: 400.0 mg/kg/injection, schedule: Q01DX001 (ip), vehicle: Klucel (hydroxypropylcellulose) (HPC)
[10] = dose: 50.0 mg/kg/injection, schedule: Q01DX009 (ip), vehicle: saline
[11] = dose: 100.0 mg/kg/injection, schedule: Q01DX009 (ip), vehicle: saline
[12] = dose: 200.0 mg/kg/injection, schedule: Q01DX009 (ip), vehicle: saline
[13] = dose: 100.0 mg/kg/injection, schedule: Q04DX002 (ip), vehicle: saline with Tween-80
[14] = dose: 200.0 mg/kg/injection, schedule: Q04DX002 (ip), vehicle: saline with Tween-80
[15] = dose: 50.0 mg/kg/injection, schedule: Q01DX009 (ip), vehicle: saline with Tween-80
[16] = dose: 60.0 mg/kg/injection, schedule: Q01DX005 (ip), vehicle: saline with Tween-80
[17] = dose: 120.0 mg/kg/injection, schedule: Q01DX005 (ip), vehicle: saline with Tween-80
[18] = dose: 50.0 mg/kg/injection, schedule: Q01DX001 (ip), vehicle: Klucel (hydroxypropylcellulose) (HPC)
[19] = dose: 100.0 mg/kg/injection, schedule: Q01DX009 (ip), vehicle: saline with Tween-80

Measured: T/C

NNC(=O)C(=O)N/N=C(\CC1(O)C(=O)Nc2ccccc21)c1ccccc1O (stereo not given)
inactive: [1] 104 % of control | [2] 98 % of control | [3] 103 % of control

COc1ccc2c(c1O)-c1c(OC)c(O)cc3c1C(C2)NCC3 (stereo not given)
inactive: dose: 32.0 mg/kg/injection, schedule: Q01DX009 (ip), vehicle: Klucel (hydroxypropylcellulose) (HPC) 96 % of control | dose: 64.0 mg/kg/injection, schedule: Q01DX009 (ip), vehicle: Klucel (hydroxypropylcellulose) (HPC) 93 % of control | dose: 128.0 mg/kg/injection, schedule: Q01DX009 (ip), vehicle: Klucel (hydroxypropylcellulose) (HPC) 100 % of control | dose: 256.0 mg/kg/injection, schedule: Q01DX009 (ip), vehicle: Klucel (hydroxypropylcellulose) (HPC) 102 % of control

Nc1ccc(-c2ccc(N=C(/C=N/O)NO)cc2)cc1
inactive: [4] 102 % of control | [5] 100 % of control | [6] 94 % of control

O=C1Cc2ccccc2N1C(=O)c1ccccc1Br
inactive: [7] 106 % of control | [8] 98 % of control | [9] 90 % of control

CC1NCCc2[nH]cnc21 (stereo not given)
inactive: [10] 96 % of control | [11] 100 % of control | [12] 105 % of control

COC(=O)C1=C2Nc3ccccc3C23CCN2C4OC56C7CC4(CN5c4c(OC)cccc4C64CCN5CCC6OCCC6(C7)C54)C4OCCC4(C1)C23 (stereo not given)
inactive: [13] 101 % of control | [14] 101 % of control | dose: 400.0 mg/kg/injection, schedule: Q04DX002 (ip), vehicle: saline with Tween-80 101 % of control

Clc1cc(=Nc2ccccc2)n2ccccc2n1
inactive: dose: 60.0 mg/kg/injection, schedule: Q01DX005 (ip), vehicle: Klucel (hydroxypropylcellulose) (HPC) 96 % of control | dose: 120.0 mg/kg/injection, schedule: Q01DX005 (ip), vehicle: Klucel (hydroxypropylcellulose) (HPC) 99 % of control | dose: 240.0 mg/kg/injection, schedule: Q01DX005 (ip), vehicle: Klucel (hydroxypropylcellulose) (HPC) 97 % of control

Cc1cc(C)c2c(c1)CC(C)(C)CC2(O)C1CCCCN1 (stereo not given)
inactive: [4] 100 % of control | [5] 108 % of control

CCCCC(NC(=O)OC(C)(C)C)C(=O)O (stereo not given)
inactive: [4] 98 % of control | [5] 99 % of control | [6] 104 % of control

COc1cc2c(cc1Cl)nc1c(=O)[nH]c(=O)nc-1n2CCN1CCCC1
inactive: dose: 12.5 mg/kg/injection, schedule: Q01DX005 (ip), vehicle: saline with Tween-80 100 % of control | dose: 25.0 mg/kg/injection, schedule: Q01DX005 (ip), vehicle: saline with Tween-80 108 % of control | [1] 111 % of control and 115 % of control | [2] 116 % of control | [3] 114 % of control

CCO/C=N\Nc1ccc2nnc(Cl)n2n1
inactive: [10] 92 % of control | [11] 103 % of control | [12] 93 % of control

COc1c(Br)cc(Br)cc1/C=C/[N+](=O)[O-]
inactive: [15] 123 % of control

CC1C(=O)OC2C1CCC1(C)C=C(Cl)C(=O)C3(C)OC213 (stereo not given)
inactive: dose: 50.0 mg/kg/injection, schedule: Q04DX002 (ip), vehicle: saline with Tween-80 100 % of control | [13] 100 % of control | [14] 100 % of control

Cc1c(C#N)c2n(c1C)CC(=O)N2
inactive: [16] 87 % of control | [17] 95 % of control

CC(=O)N1C(C(=O)O)Cc2c([nH]c3ccccc23)C1(C)C (stereo not given)
inactive: dose: 100.0 mg/kg/injection, schedule: Q01DX001 (ip), vehicle: suspension in saline 108 % of control | dose: 200.0 mg/kg/injection, schedule: Q01DX001 (ip), vehicle: suspension in saline 95 % of control | dose: 400.0 mg/kg/injection, schedule: Q01DX001 (ip), vehicle: suspension in saline 107 % of control

COC1=CCC2C(=O)C=CC(=O)C2C1 (stereo not given)
inactive: dose: 12.5 mg/kg/injection, schedule: Q01DX005 (ip), vehicle: Klucel (hydroxypropylcellulose) (HPC) 101 % of control | dose: 25.0 mg/kg/injection, schedule: Q01DX005 (ip), vehicle: Klucel (hydroxypropylcellulose) (HPC) 93 % of control | [4] 101 % of control | [5] 96 % of control | [6] 101 % of control

CC1=C(O)C(=O)C(C)=C(O)C1=O
inactive: dose: 12.5 mg/kg/injection, schedule: Q01DX001 (ip), vehicle: Klucel (hydroxypropylcellulose) (HPC) 112 % of control | dose: 25.0 mg/kg/injection, schedule: Q01DX001 (ip), vehicle: Klucel (hydroxypropylcellulose) (HPC) 112 % of control | [18] 111 % of control

[Se]c1nccn2cnnc12
inactive: dose: 1.56 mg/kg/injection, schedule: Q01DX001 (ip), vehicle: saline 99 % of control and 101 % of control | dose: 3.12 mg/kg/injection, schedule: Q01DX001 (ip), vehicle: saline 100 % of control and 96 % of control | dose: 6.25 mg/kg/injection, schedule: Q01DX001 (ip), vehicle: saline 99 % of control and 105 % of control | dose: 12.5 mg/kg/injection, schedule: Q01DX001 (ip), vehicle: saline 103 % of control and 109 % of control

O=C(/C=C/c1c(-c2ccccc2)[nH]c2ccccc12)c1ccc([N+](=O)[O-])cc1
inactive: [16] 97 % of control | [17] 90 % of control | dose: 240.0 mg/kg/injection, schedule: Q01DX005 (ip), vehicle: saline with Tween-80 87 % of control

CC(C)C1CS1=O (stereo not given)
inactive: dose: 60.0 mg/kg/injection, schedule: Q01DX005 (ip), vehicle: saline 97 % of control | dose: 120.0 mg/kg/injection, schedule: Q01DX005 (ip), vehicle: saline 97 % of control | dose: 240.0 mg/kg/injection, schedule: Q01DX005 (ip), vehicle: saline 109 % of control

O=C1OC(CCCl)CN1Cc1ccccc1 (stereo not given)
inactive: [10] 103 % of control | [11] 103 % of control | [12] 98 % of control

O=C(Sc1ccccc1)N1CCN(C(=O)Sc2ccccc2)CC1
inactive: dose: 50.0 mg/kg/injection, schedule: Q01DX009 (ip), vehicle: Klucel (hydroxypropylcellulose) (HPC) 100 % of control | dose: 100.0 mg/kg/injection, schedule: Q01DX009 (ip), vehicle: Klucel (hydroxypropylcellulose) (HPC) 100 % of control | dose: 200.0 mg/kg/injection, schedule: Q01DX009 (ip), vehicle: Klucel (hydroxypropylcellulose) (HPC) 109 % of control

COc1ccc2c(Cl)cc(NC(=S)Nc3ccccc3)nc2c1
inactive: dose: 6.25 mg/kg/injection, schedule: Q01DX009 (ip), vehicle: Klucel (hydroxypropylcellulose) (HPC) 103 % of control | dose: 12.5 mg/kg/injection, schedule: Q01DX009 (ip), vehicle: Klucel (hydroxypropylcellulose) (HPC) 104 % of control | dose: 25.0 mg/kg/injection, schedule: Q01DX009 (ip), vehicle: Klucel (hydroxypropylcellulose) (HPC) 96 % of control

Cc1nn(C(=O)c2ccncc2)c(C)c1N=Nc1nc2ccc([N+](=O)[O-])cc2s1
inactive: [13] 97 % of control | [14] 94 % of control

Cc1ccc(NC(=O)C(c2ccccc2)c2ccccc2)cc1
inactive: dose: 100.0 mg/kg/injection, schedule: Q04DX003 (ip), vehicle: saline with Tween-80 98 % of control | dose: 200.0 mg/kg/injection, schedule: Q04DX003 (ip), vehicle: saline with Tween-80 97 % of control | dose: 400.0 mg/kg/injection, schedule: Q04DX003 (ip), vehicle: saline with Tween-80 92 % of control

O=C1CSC=C(c2ccccc2)O1
inactive: dose: 12.5 mg/kg/injection, schedule: Q01DX009 (ip), vehicle: saline with Tween-80 108 % of control | dose: 25.0 mg/kg/injection, schedule: Q01DX009 (ip), vehicle: saline with Tween-80 110 % of control | [15] 109 % of control | [19] 104 % of control

CCS(CC)=NC(=O)C(Cl)Cl
inactive: [18] 100 % of control and 104 % of control and 97 % of control | [7] 99 % of control and 100 % of control and 94 % of control | [8] 99 % of control and 100 % of control and 123 % of control | [9] 111 % of control and 95 % of control

CC(=O)Nc1ccc(-c2csc(Nc3ccnc4cc(Cl)ccc34)n2)cc1
inactive: [1] 93 % of control and 95 % of control | [2] 92 % of control | [3] 90 % of control and 92 % of control

COC(=O)C12N=NN(c3ccccc3)C1(C(=O)OC)C1CCC2C1 (stereo not given)
inactive: [19] 95 % of control | dose: 200.0 mg/kg/injection, schedule: Q01DX009 (ip), vehicle: saline with Tween-80 100 % of control | dose: 400.0 mg/kg/injection, schedule: Q01DX009 (ip), vehicle: saline with Tween-80 90 % of control
